Reference: paper PMC8482815, “Targeting Host Glycolysis as a Strategy for Antimalarial Development” (Frontiers in Cellular and Infection Microbiology, 2021)
Where “and” joins values, the source holds several entries; their conditions need not be identical. Identical values can stand only once.

Tested on: human erythrocytes
Test: Untargeted metabolomics and 13C-glucose tracing of enolase inhibitor treated erythrocytes
Type: cell-based
Conditions: 6h
Protocol: Freshly collected erythrocytes were washed, resuspended to 10% hematocrit in buffer [25mM HEPES (pH 7.4), 120mM NaCl, 5.4mM KCl, 1.8mM CaCl2, and 1mM NaH2PO4], incubated for 1 hour at 37°C, then centrifuged at 2000xg for 5 minutes at 4°C, resuspended in fresh wash buffer to 30-40% hematocrit, and split into 210µL aliquots of packed erythrocytes. […] All samples were incubated at 37°C shaking at 500 RPM. Triplicate samples of supernatants and packed erythrocytes were collected at 0, 0.5, 1, and 6-hour intervals and snap-frozen in liquid N2.
RBC and media samples were extracted at 1:10 and 1:20 dilutions, respectively, in 5:3:2 MeOH : MeCN:H2O v/v/v, and supernatants analyzed on a Thermo Vanquish UHPLC coupled to a Thermo Q Exactive mass spectrometer, as extensively described ([Nemkov et al., 2015]; [Nemkov et al., 2017]). The extraction buffer was supplemented with 40uM 3-^13C lactate to allow absolute quantification of lactate isotopologues, including lactate generated via glycolysis ([1,2,3-^13C3] enriched) vs. the pentose phosphate pathway ([2,3-^13C2] enriched), as described ([Reisz et al., 2016]). Metabolite assignments, peak area integration and isotopologues distributions were determined using Maven (Princeton University) ([Nemkov et al., 2015]; [Nemkov et al., 2017]).
Data were auto-scaled and normalized to zero-hour time points. Metabolites were removed from the dataset if greater than 50% of the samples contained missing values or the relative standard deviation among replicates exceeded 25%. Additionally, data was filtered using the interquartile range to reduce near-constant values from the experiment by 5%.
A principal component analysis of preprocessed data was plotted with the 95% confidence interval minimum volume enclosing ellipsoid for each respective group (MetaboAnalyst, cluster, plotly). A two-way repeated measures analysis of variance (ANOVA) was performed with multiple comparisons corrected for using a false discovery rate p-value cutoff of 0.05. Metabolite-Pathway analysis was performed using the R package of MetaboAnalyst, as previously described ([Xia and Wishart, 2010]). Metabolite-Protein nodal analysis was performed using omicsnet.ca and as previously described ([Zhou and Xia, 2018]).

[1] = treated erythrocytes, one value per replicate sample, polarity +
[2] = treated erythrocytes, one value per replicate sample, polarity -
[3] = treated erythrocytes, replicate samples

In the case of `CC(C)(C)C(=O)OCOP(=O)(OCOC(=O)C(C)(C)C)C1CCCN(O)C1=O` (stereo not shown) [POMHEX], the “AMP level (metabolomics signal)” value (replicate samples) was 3.72E+05 and 4.97E+05 and 4.88E+05, the “ATP level (metabolomics signal)” value (replicate samples) was 1.06E+05 and 4.51E+04 and 2.86E+04 and the “Adenine level (metabolomics signal)” value (replicate samples) was 1.10E+05 and 1.13E+05 and 1.03E+05. The “Cytosine level (metabolomics signal)” value (replicate samples) was 0.00E+00, the “L-alanine level (metabolomics signal)” value (replicate samples) was 7.74E+06 and 6.77E+06 and 7.99E+06 and the “L-arginine level (metabolomics signal)” value (replicate samples) was 4.96E+06 and 6.71E+06 and 3.72E+06. For the same compound, the “L-asparagine level (metabolomics signal)” value (replicate samples) was 5.50E+06 and 5.88E+06 and 6.25E+06, the “L-aspartate level (metabolomics signal)” value (replicate samples) was 1.08E+07 and 1.19E+07 and 1.12E+07 and the “L-cysteine level (metabolomics signal)” value (replicate samples) was 4.98E+05 and 5.97E+05 and 1.05E+06. For the same compound, the “L-glutamate level (metabolomics signal)” value (replicate samples) was 5.99E+06 and 6.14E+06 and 6.66E+06, the “L-glutamine level (metabolomics signal)” value (replicate samples) was 6.37E+07 and 6.26E+07 and 6.35E+07 and the “L-histidine level (metabolomics signal)” value (replicate samples) was 1.60E+06 and 1.47E+06 and 1.87E+06. For the same compound, the “L-isoleucine level (metabolomics signal)” value (replicate samples) was 1.28E+07 and 1.42E+07 and 1.14E+07, the “L-leucine level (metabolomics signal)” value (replicate samples) was 1.47E+08 (2×) and 1.27E+08 and the “L-lysine level (metabolomics signal)” value (replicate samples) was 1.47E+06 and 1.24E+06 and 1.45E+06. For the same compound, the “L-methionine level (metabolomics signal)” value (replicate samples) was 1.56E+07 and 1.66E+07 and 1.27E+07, the “L-phenylalanine level (metabolomics signal)” value (replicate samples) was 7.06E+06 and 6.50E+06 and 4.97E+06 and the “L-proline level (metabolomics signal)” value (replicate samples) was 6.39E+07 and 5.46E+07 and 5.96E+07. For the same compound, the “L-serine level (metabolomics signal)” value (replicate samples) was 4.50E+06 and 4.60E+06 and 4.86E+06, the “L-threonine level (metabolomics signal)” value (replicate samples) was 8.82E+06 and 8.15E+06 and 8.77E+06 and the “L-tryptophan level (metabolomics signal)” value (replicate samples) was 1.85E+06 and 1.63E+06 and 1.27E+06. The “L-tyrosine level (metabolomics signal)” value (replicate samples) was 2.13E+07 and 2.30E+07 and 1.69E+07, the “L-valine level (metabolomics signal)” value (replicate samples) was 1.59E+08 and 1.62E+08 and 1.47E+08 and the “dCMP level (metabolomics signal)” value (replicate samples) was 1.62E+04 and 1.66E+04 and 1.35E+04. The “dTMP level (metabolomics signal)” value (replicate samples) was 1.10E+06 and 1.20E+06 and 9.63E+05, the “glycine level (metabolomics signal)” value (replicate samples) was 1.51E+06 and 1.66E+06 and 1.67E+06 and the “N-Acyl-D-aspartate (C06380) metabolite signal” value [1] was 6.16E+04 and 5.50E+04 and 5.26E+04. The “Poly-gamma-D-glutamate (C05723) metabolite signal” value [1] was 4.45E+07 and 4.25E+07 and 4.46E+07, the “D-Ribitol 5-phosphate (C01068) metabolite signal” value [2] was 1.15E+04 and 2.30E+04 and 2.25E+04 and the “D-glucono-1,5-lactone (C00198) metabolite signal” value [2] was 2.58E+05 and 2.64E+05 and 3.28E+05. The “L-Noradrenaline (C00547) metabolite signal” value [2] was 2.02E+04 and 2.76E+04 and 1.70E+04, the “Oxalosuccinate (C05379) metabolite signal” value [2] was 8.49E+04 and 8.94E+04 and 8.00E+04 and the “Pyridoxamine (C00534) metabolite signal” value [2] was 9.67E+03 and 8.58E+03 and 9.61E+03. For the same compound, the “Thioredoxin disulfide (C00343) metabolite signal” value [2] was 2.29E+04 and 2.69E+04 and 2.77E+04, the “1-4-beta-D-Xylan (metabolite signal)” value [3] was 1.64E+05 and 1.40E+05 and 1.93E+05 and the “2-Hydroxyglutarate/Citramalate (C02630) metabolite signal” value [3] was 7.84E+04 and 5.75E+04 and 5.66E+04. The “5-6-Dihydrothymine (C00906) metabolite signal” value [3] was 2.80E+05 and 2.87E+05 and 2.28E+05, the “5-10-Methenyltetrahydrofolate (metabolite signal)” value [3] was 1.54E+05 and 1.37E+05 and 1.05E+05 and the “5-Hydroxyisourate (C11821) metabolite signal” value [3] was 4.81E+06 and 4.49E+06 and 3.27E+06. For the same compound, the “5-L-Glutamyl-taurine (metabolite signal)” value [3] was 1.49E+05 and 1.28E+05 and 1.35E+05, the “5-Oxoproline (metabolite signal)” value [3] was 8.83E+05 and 1.09E+06 and 7.57E+05 and the “(S)(+)-Allantoin (C02350) metabolite signal” value [3] was 7.40E+03 and 8.26E+03 and 9.04E+03. The “Allantoate (C00499) metabolite signal” value [3] was 5.78E+05 and 5.92E+05 and 8.52E+05, the “Ascorbate (metabolite signal)” value [3] was 7.64E+04 and 9.21E+04 and 9.25E+04 and the “CMP-N-acetylneuraminate (metabolite signal)” value [3] was 2.55E+04 and 6.91E+03 and 6.08E+03. The “Carnosine (metabolite signal)” value [3] was 1.46E+05 and 1.52E+05 and 1.15E+05, the “Citrate (C00158) metabolite signal” value [3] was 2.76E+04 and 1.91E+04 and 1.57E+04 and the “Creatine (metabolite signal)” value [3] was 1.37E+08 and 1.42E+08 and 1.27E+08. For the same compound, the “Creatinine (metabolite signal)” value [3] was 2.18E+06 and 2.32E+06 and 1.85E+06, the “Cys-Gly (metabolite signal)” value [3] was 7.81E+05 and 5.57E+05 and 7.70E+05 and the “D-Glucosamine (metabolite signal)” value [3] was 3.33E+05 and 2.53E+05 and 2.71E+05. For the same compound, the “D-Glucose (C00031) metabolite signal” value [3] was 3.99E+06 and 4.57E+06 and 4.90E+06, the “D-Ribose (C00121) metabolite signal” value [3] was 1.11E+05 and 8.97E+04 and 8.43E+04 and the “Dehydroascorbate (metabolite signal)” value [3] was 3.57E+04 and 4.39E+04 and 4.65E+04. The “Dihydrofolate (metabolite signal)” value [3] was 1.44E+06 and 1.74E+06 and 1.87E+06, the “Dimethylglycine (metabolite signal)” value [3] was 6.87E+05 and 6.86E+05 and 5.98E+05 and the “Diphosphate (C00013) metabolite signal” value [3] was 2.84E+04 and 3.52E+04 and 3.86E+04. For the same compound, the “Fumarate (C00122) metabolite signal” value [3] was 9.00E+04 and 7.84E+04 and 7.19E+04, the “Glutathione (C00051) metabolite signal” value [3] was 4.59E+07 and 3.87E+07 and 4.33E+07 and the “Glutathione disulfide (metabolite signal)” value [3] was 3.00E+05 and 9.38E+04 and 7.81E+04. For the same compound, the “Hypoxanthine (C00262) metabolite signal” value [3] was 7.14E+03 and 5.93E+03 and 0.00E+00, the “IMP (C00130) metabolite signal” value [3] was 4.51E+04 and 3.74E+04 and 4.61E+04 and the “Inosine (C00294) metabolite signal” value [3] was 6.84E+04 and 6.73E+04 and 4.20E+04. For the same compound, the “L-Citrulline (metabolite signal)” value [3] was 2.71E+06 and 3.04E+06 and 2.48E+06, the “L-Homoserine (metabolite signal)” value [3] was 2.62E+05 and 3.31E+05 and 2.39E+05 and the “Lactate (C01432) metabolite signal” value [3] was 1.75E+07 and 2.07E+07 and 1.43E+07. The “Malate (C00149) metabolite signal” value [3] was 1.61E+05 and 9.39E+04 and 7.61E+04, the “Mannitol (C00392) metabolite signal” value [3] was 1.83E+05 and 1.22E+05 and 1.51E+05 and the “N-Acetylneuraminate (metabolite signal)” value [3] was 1.66E+04 and 1.46E+04 and 8.13E+03. The “N-Glycoloyl-neuraminate (metabolite signal)” value [3] was 7.64E+04 and 8.68E+04 and 1.14E+05, the “NAD+ (C00003) metabolite signal” value [3] was 5.29E+04 and 5.95E+04 and 9.85E+04 and the “Nicotinamide (C00153) metabolite signal” value [3] was 2.02E+07 and 2.16E+07 and 1.82E+07. For the same compound, the “Ornithine (metabolite signal)” value [3] was 1.75E+06 and 1.63E+06 and 1.64E+06, the “Oxaloacetate (C00036) metabolite signal” value [3] was 3.72E+04 and 4.43E+04 and 3.47E+04 and the “Phosphoserine (metabolite signal)” value [3] was 2.32E+04 and 2.57E+04 and 1.04E+04. For the same compound, the “Putrescine (metabolite signal)” value [3] was 4.24E+04 and 2.70E+04 and 3.11E+04, the “Pyridoxal (C00250) metabolite signal” value [3] was 4.26E+04 and 5.24E+04 and 7.64E+04 and the “Pyruvate (C00022) metabolite signal” value [3] was 2.17E+06 (2×) and 1.35E+06. The “S-Glutathionyl-L-cysteine (metabolite signal)” value [3] was 2.24E+05 and 8.00E+04 and 6.92E+04, the “Sedoheptulose 1-phosphate (C06222) metabolite signal” value [3] was 2.39E+04 and 1.32E+04 and 9.55E+03 and the “Spermidine (metabolite signal)” value [3] was 6.66E+06 and 5.53E+06 and 5.68E+06. For the same compound, the “Spermine (metabolite signal)” value [3] was 8.48E+06 and 7.61E+06 and 6.89E+06, the “Succinate (C00042) metabolite signal” value [3] was 3.87E+04 and 5.97E+04 and 7.05E+04 and the “Thymidine (C00214) metabolite signal” value [3] was 1.24E+04 and 9.43E+03 and 3.23E+03. For the same compound, the “UDP (C00015) metabolite signal” value [3] was 8.83E+04 and 9.94E+04 and 8.18E+04, the “UDP-N-acetyl-D-glucosamine (metabolite signal)” value [3] was 8.06E+03 and 2.61E+03 and 5.41E+03 and the “UDP-glucose (C00029) metabolite signal” value [3] was 9.76E+03 and 1.91E+03 and 5.75E+03. For the same compound, the “Urate (C00366) metabolite signal” value [3] was 3.58E+04 and 2.84E+04 and 2.03E+04, the “Xanthine (C00385) metabolite signal” value [3] was 7.82E+04 and 7.20E+04 and 8.31E+04 and the “alpha-D-Glucosamine 1-phosphate (metabolite signal)” value [3] was 9.63E+05 and 8.22E+05 and 5.48E+05. For the same compound, the “alpha-D-Ribose 1-phosphate (C00620) metabolite signal” value [3] was 4.34E+04 and 2.92E+04 and 1.97E+04, the “gamma-Glutamyl-gamma-aminobutyrate (metabolite signal)” value [3] was 5.87E+04 and 5.26E+04 and 3.36E+04 and the “gamma-L-Glutamyl-D-alanine (metabolite signal)” value [3] was 4.70E+04 and 4.49E+04 and 2.74E+04. The “gamma-L-Glutamyl-L-cysteine (metabolite signal)” value [3] was 4.20E+04 and 3.03E+04 and 3.96E+04.
